# Reference: patent US10172789B2, “Compositions for transdermal delivery of mTOR inhibitors” (PALVELLA THERAPEUTICS LLC, priority 2013, dated 2019)
# “Also recorded” adds a separate entry of the source.
# Key:
# [1] = Rapamycin distribution in human explant skin after topical application (reverse-phase HPLC); format: in vitro ADME
# Protocol: Rapamycin extracted from the indicated tissue slices was assayed by reverse-phase HPLC. The tissue surface was cleaned with isopropyl alcohol prior to sectioning to remove any residual surface material.
# To test delivery of rapamycin from a formulation similar to that disclosed in Example 2, the formulation was applied to explant human skin.
# mouse skin = assay: Gross examination of topically-treated mouse ears, flanks and footpads; format: in vivo; conditions: flanks and footpads vs untreated or placebo-treated skin, data not shown
# [2] = system: ribosomal protein S6 phosphorylation; assay: S6 phosphorylation in mouse skin after topical formulation (western blot, IHC); format: in vivo; conditions: mouse skin including ears, topical formulation with rapamycin dissolved in benzyl alcohol; western blot and IHC
# Protocol: (§1) FIGS. 1C-F show immunochemistry […] images of frozen skin sections taken from mice treated with the same creams as FIG. 1B.
# (§2) To evaluate whether benzyl alcohol has deleterious effects on rapamycin activity, rapamycin was dissolved in benzyl alcohol (and compared with other solvents as indicated) and evaluated for its ability to block phosphorylation of ribosomal protein S6, a commonly used method to assess mTOR pathway inhibition by rapamycin, in human HaCaT and patient-derived keratinocytes. […] In the assays described below, a P-S6-specific antibody recognizes only the phosphorylated form of S6 whereas the other antibody recognizes total S6 protein (i.e., both P-S6 and unphosphorylated S6). […] The inhibition of phospho-S6 was observed by both western blot analysis of protein extracts from treated mouse skin (FIG. 1B) and by immunohistochemistry (IHC) of frozen sections prepared from treated mouse skin (FIG. 1C-F).
# [3] = system: ribosomal protein S6 phosphorylation; assay: S6 phosphorylation (P-S6) western blot in human HaCaT keratinocytes; format: cell-based
# Protocol: as §1, §2
# Next-generation mTOR inhibitors have similar effects on ribosomal protein S6-phosphoylation (p-S6) when compared to rapamycin. […] The p-S6 levels were quantified and the ratio of p-S6 to total S6 (total S6 data not shown) was graphed in FIG. 2B in similar fashion to FIG. 1.
compound,measurement,setting,value
CO[C@H]1C[C@@H]2CC[C@@H](C)[C@@](O)(O2)C(=O)C(=O)N2CCCC[C@H]2C(=O)O[C@H]([C@H](C)C[C@@H]2CC[C@@H](O)[C@H](OC)C2)CC(=O)[C@H](C)/C=C(\C)[C@@H](O)[C@@H](OC)C(=O)[C@H](C)C[C@H](C)/C=C/C=C/C=C/1C [rapamycin],net deposition of rapamycin within the skin,[1]; 16 hours after application of rapamycin formulation,> 4 % of the applied dose
same,rapamycin concentrations within the epidermis (and dermis),"[1]; 16 hours after topical application, formulation similar to Example 2, compared with level needed to inhibit S6 phosphorylation in cell culture",many fold higher than required for in vitro activity; also recorded: well above the IC50 value
same,skin irritation on gross examination,mouse skin,little or no irritation
same,S6 phosphorylation relative to total S6 protein,[2],inhibited
same,effect on total S6 protein levels,[3]; rapamycin dissolved in benzyl alcohol or other solvents,little or no effect
same,inhibition of ribosomal protein S6 phosphorylation (P-S6),"[3]; rapamycin dissolved in benzyl alcohol, DMSO, ethanol or diglycol, FIG. 1A",efficiently inhibits
